Results taken from patent US12331302B2, “Fungal autoinducible expression system” (priority 2019, dated 2025).

B1: Bar1: α-factor degrading protease (protein, UniProt P12630 25-587, looked up)
Barrierpepsin: LTNDGTGHLEFLLQHEEEMYYATTLDIGTPSQSLTVLFDTGSADFWVMDSSNPFCLPNSNTSSYSNATYNGEEVKPSIDCRSMSTYNEHRSSTYQYLENGRFYITYADGTFADGSWGTETVSINGIDIPNIQFGVAKYATTPVSGVLGIGFPRRESVKGYEGAPNEYYPNFPQILKSEKIIDVVAYSLFLNSPDSGTGSIVFGAIDESKFSGDLFTFPMVNEYPTIVDAPATLAMTIQGLGAQNKSSCEHETFTTTKYPVLLDSGTSLLNAPKVIADKMASFVNASYSEEEGIYILDCPVSVGDVEYNFDFGDLQISVPLSSLILSPETEGSYCGFAVQPTNDSMVLGDVFLSSAYVVFDLDNYKISLAQANWNASEVSKKLVNIQTDGSISGAKIATAEPWSTNEPFTVTSDIYSSTGCKSRPFLQSSTASSLIAETNVQSRNCSTKMPGTRSTTVLSKPTQNSAMHQSTGAVTQTSNETKLELSSTMANSGSVSLPTSNSIDKEFEHSKSQTTSDPSVAEHSTFNQTFVHETKYRPTHKTVITETVTKYSTVLINVCKPTY

Experiments:
Type in all cases: cell-based, Saccharomyces cerevisiae
[1] = system: FUS1 promoter (pFUS1); assay: mCherry expression under control of pFUS1, with or without α-factor; details: after 24 h, culture with addition of 5 μM α-factor
Description: (§1) Pre-cultures are prepared by inoculation of biological triplicates in CSM with appropriate amino acid drop out, and are grown for two days at 30° C., 250 rpm. Thereafter, they are inoculated to an OD of 0.05 in two duplicate tubes, whereof one is induced with 5 μM α-factor. Strains are grown at 30° C., 250 rpm for 24 h and samples are taken for flow cytometry after 0, 8 and 24 h. For characterization of strains with endogenous α-factor production, transformation plates and pre-culture media is supplemented with 5 μg/mL doxycycline. The pre-cultures are washed to remove Bar1 and doxycycline prior to inoculation. OD is measured at 600 nm and GFP and mCherry production is measured with a BD Accuri™ C6 flow cytometer from Becton, Dickinson and Company (Franklin Lakes, NJ, USA).
(§2) To test the initial system configuration, pFUS1-Cre and pTEF1-loxP-GFP-loxP-mCherry is transformed into strain JL275 (BY4741 MATa Δbar1 Δfar1). Precultures are grown for two days in CSM-ura-leu. Each replicate is used to inoculate two cultures, whereof one is induced with 5 μM α-factor. Fluorescence is measured after 0, 8 and 24 h. […] This indicated a high basal level expression from the FUS1 promoter, leading to leaky expression of Cre recombinase and early recombination. To investigate this hypothesis, mCherry is cloned under control of pFUS1 and mCherry expression is measured at 0 and 24 h. […]

[2] = system: Ste2 receptor / pFUS1J2-ubiM-Cre circuit in strain JL275; assay: Strain characterization: GFP and mCherry production by flow cytometry after α-factor induction of the Cre/loxP circuit; details: JL275 with pFUS1J2-ubiM-Cre and pTEF1-loxP-GFP-loxP-mCherry
Description: as §1, §2

[3] = system: strains JL277-JL280; assay: Autoinducible strains with endogenous α-factor production, fluorescence by TECAN plate reader; details: JL277-280 with pFUS1J2-ubiM-Cre pTDH3-rtTA pTETO3-BAR1 and pTEF1-loxP-GFP-loxP-mCherry; with or without 5 μM α-factor
Description: To establish autoinducible strains, the α-factor-expressing gene MFα1 under control of four different native promoters with different expression strengths (pTDH3, pPGK1, pYEF3 and pACT1) is integrated into locus p416d into the genome of JL275, resulting in strains JL277-JL280, respectively. The strains are transformed with plasmids pFUS1J2-ubiM-Cre pTDH3-rtTA pTETO3-BAR1 and pTEF1-loxP-GFP-loxP-mCherry, inoculated into CSM-ura-leu supplemented with 5 μg/mL doxycycline and pre-cultured for two days. The pre-cultures are washed and inoculated to an OD of 0.05, and grown with or without 5 μM α-factor to compare endogenous and external inducibility. The strain fluorescence is measured with a TECAN plate reader. […] The strain also continued to produce GFP unless α-factor is added. This experiment is to be repeated according to the previously established strain characterization protocol and measured with a flow cytometer.

[4] = system: pTETO3-BAR1 control module in strain JL275; assay: Functionality of doxycycline-inducible BAR1 expression (supernatant/α-factor mix); details: supernatant mixed with 600 μM α-factor, 30° C., 4 h
Description: The functionality of Bar1 expression is investigated by transforming JL275 with pFUS1J2-ubiM-Cre pTDH3-rtTA pTETO3-BAR1 or control plasmid pFUS1-Cre. Both strains are inoculated in media with or without 5 μg/mL doxycycline, and are grown to stationary phase where after they are spun down. 0.5 mL supernatant is mixed with 0.5 mL 600 μM α-factor and incubated at 30° C. for 4 h. A corresponding amount of 5 μM α-factor (assuming no α-factor has been degraded) from each supernatant/α-factor incubation mix is used to induce cultures of JL275 with pFUS1J2-ubiM-Cre and pTEF1-loxP-GFP-loxP-mCherry (FIG. 4A). 0 and 5 μM α-factor are used as controls.

| Molecule | mCherry expression from pFUS1 compared to the background strain autofluorescence [1] | System titratability (mCherry output) ([2]; 0, 0.1, 0.5, 1, 5 or 10 μM α-factor) | GFP to mCherry production shift ([2]; 5 μM α-factor, 0, 8 and 24 h) | mCherry production induction [3] | Degradation of α-factor by supernatant [4] |
| --- | --- | --- | --- | --- | --- |
| α-factor | approximately 20 fold | mCherry output correlating to the amount of α-factor added | clear shift from GFP to mCherry production | barely induced unless α-factor is added |  |
| B1 |  |  |  |  | functional and degrades α-factor |
